# Experimental data as given in patent US20090118253A1, “COMPOSITIONS AND METHODS FOR TREATING DYSFUNCTIONAL UTERINE BLEEDING” (REPROS THERAPEUTICS INC., priority 2007, published 2009).
# Columns and labels:
# [1] = test system: progesterone-induced endometrial glandular proliferation in rabbit uterus; assay: anti-McGinty and anti-Clauberg assays in the rabbit uterus; format: in vivo
# From the text: Also given in Table 1 are the relative biological activities of the same compounds in the rabbit uterus by the anti-McGinty and anti-Clauberg assays. Compound CDB-2914 (listed at the end of the Table) was used as the control or reference compound (rabbit Biological Activity=1.00) for these experiments because results of experiments using CDB-2914 have been published before (Hild-Petito et al., 1996; Passaro et al., 1997; Reel et al., 1998; Lamer et al., 2000). For the anti-McGinty test, immature female rabbits received a subcutaneous injection of 5 μg estradiol in 10% ethanol/sesame oil daily for 6 consecutive days. On day 7, animals underwent sterile abdominal surgery to ligate a 3-4 cm segment of both uterine horns. The test compound in appropriate solvent was injected intraluminally into the ligated segment of one uterine horn and vehicle alone into the other. A stimulating dose of progesterone (267 μg/day) was administered subcutaneously to each rabbit daily for the next three days to induce endometrial proliferation. All animals were sacrificed at day 10 for removal of the uterus where a segment central to the ligatures was removed and fixed in 10% neutral buffered formalin and submitted for histological processing. Five micron sections stained with hematoxylin and cosin were evaluated microscopically for the degree of endometrial glandular proliferation. The percent inhibition of endometrial proliferation for each rabbit was calculated and the mean of the group of five animals recorded. For the Anti-Clauberg test, immature female rabbits received a subcutaneous injection of 5 μg estradiol in 10% ethanol/sesame oil daily for 6 consecutive days. On day 7, animals received progesterone by subcutaneous injection (160 μg/day) and the experimental compound in appropriate vehicle orally or subcutaneously for five consecutive days. One group of rabbits received progesterone only. Twenty-four hours after the last dose, all animals were sacrificed for removal of the uterus which was cleaned of all fat and connective tissue, weighed to the nearest 0.2 mg and placed in 10% neutral buffered formalin for subsequent histological processing. Five micron sections stained with hematoxylin and eosin were evaluated microscopically for the degree of endometrial glandular proliferation. The percent inhibition of endometrial proliferation at each dose level of the test compound was derived by comparison with progesterone-stimulated animals alone. The data presented in Table 1 (rabbit Biol. Act.) reflects the average of the results obtained for each compound by the anti-McGinty and anti-Clauberg assays relative to CDB-2914.
# [2] = test system: Cynomolgus monkey endometrial epithelia, uterus stroma and breast; assay: BrdU incorporation, tissue proliferation in cynomolgus monkeys; format: in vivo, Cynomolgus monkeys (Macaca fascicularis); details: week 36, % cells positive for incorporation of BrdU, three animals per group
# Experimental: At week 36, three animals from each group of Example 6 were injected within 24 hours of sacrifice with the thymidine analog bromodeoxyuridine (BrdU), a marker of proliferating cells and their progeny, to assess tissue proliferation. Full thickness uterine sections were stained and examined microscopically for evidence of proliferation in terms of the % cells positive for incorporation of BrdU: […]
# [3] = Urinary estrogen levels (follicular phase) in cynomolgus monkeys; format: in vivo, Cynomolgus monkeys (Macaca fascicularis); set-up: Urinary estrogen, follicular phase, Mean: unit not given here; details: for Urinary estrogen, follicular phase, Mean: CDB-4124 or RU-486 oral 1.0 mg/kg/day, Lupron IM once per month
# Experimental: Cynomolgus monkeys (Macaca fascicularis) (n=14) were treated orally for 36 weeks with CDB-4124 or RU-486 at 1.0 mg/kg/day or with placebo (control). Another group (n=14) received Lupron® IM once per month. Urinary progesterone levels were measured for each animal for one month during the middle of the study (weeks 14-17) and for the last month of the study (weeks 33-36). The results are presented below:
# Urinary estrogen levels were measured for each animal of Example 6 for one month during the middle of the study (weeks 14-17) and for the last month of the study (weeks 33-36). The follicular phase results are based on 35 baseline ovulating cycles.
# [4] = target: T1, glucocorticoid receptor (rbGR) (Oryctolagus cuniculus, UniProt P59667); assay: Glucocorticoid receptor binding / anti-glucocorticoid receptor activity; set-up: species or system rabbit
# T1 construct: cytosol containing PR or GR were prepared in TEGMD buffer; from tissue; host or cells: thymus of estradiol-primed immature rabbits (cytosol)
# T1 sequence (P59667 1-772): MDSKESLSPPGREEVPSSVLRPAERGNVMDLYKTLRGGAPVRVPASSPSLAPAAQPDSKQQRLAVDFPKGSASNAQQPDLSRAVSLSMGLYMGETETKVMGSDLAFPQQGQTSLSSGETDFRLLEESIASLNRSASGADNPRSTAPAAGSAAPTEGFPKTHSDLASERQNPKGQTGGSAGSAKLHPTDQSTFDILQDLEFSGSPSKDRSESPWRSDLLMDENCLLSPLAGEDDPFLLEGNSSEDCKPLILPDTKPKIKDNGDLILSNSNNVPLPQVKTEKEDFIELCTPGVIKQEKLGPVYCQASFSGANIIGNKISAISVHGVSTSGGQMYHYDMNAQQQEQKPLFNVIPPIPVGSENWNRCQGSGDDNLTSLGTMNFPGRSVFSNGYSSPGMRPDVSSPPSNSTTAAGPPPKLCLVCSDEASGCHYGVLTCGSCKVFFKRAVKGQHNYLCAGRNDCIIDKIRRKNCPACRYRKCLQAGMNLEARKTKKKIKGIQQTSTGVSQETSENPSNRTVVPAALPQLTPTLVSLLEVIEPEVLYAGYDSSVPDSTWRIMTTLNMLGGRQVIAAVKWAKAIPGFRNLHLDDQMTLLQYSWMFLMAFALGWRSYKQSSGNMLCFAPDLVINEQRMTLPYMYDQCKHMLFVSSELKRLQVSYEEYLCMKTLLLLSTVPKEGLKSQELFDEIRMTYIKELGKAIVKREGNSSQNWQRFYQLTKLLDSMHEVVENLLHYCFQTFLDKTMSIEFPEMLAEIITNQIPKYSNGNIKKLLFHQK
# Experimental: Certain antiprogestins were tested in receptor-binding assays for their ability to bind rabbit progesterone receptor (rbPR) and glucocorticoid receptor (rbGR). […] For PR binding, the cytosol was incubated with 6 nM 1,2-[^3H]progesterone (50.0 Ci/mmole) and competitors were added at concentrations from 2 to 100 nM. For binding to GR, the cytosol was incubated with 6 nM 6,7-[^3H]-dexamethasone (40 Ci/mmol) and test compounds were added at concentrations from 20 to 100 nM. After overnight incubation at 4 C, bound and unbound [^3H] steroids were separated by addition of dextran-coated charcoal and centrifugation at 2100×g for 15 min at 4 C. Supernatants containing the [3H]-steroid receptor complexes were decanted into vials containing 4 ml Optifluor (Packard Instrument Co.), vortexed, equilibrated in a liquid scintillation counter for 30 minutes and then counted for 2 minutes. […] The standards for the PR and GR assays were unlabeled progesterone and dexamethasone, respectively.
smiles,measurement,setting,value
"COCC(=O)[C@@]1(OC(C)=O)CC[C@H]2[C@@H]3CCC4=CC(=O)CCC4=C3[C@@H](c3ccc(N(C)C)cc3)C[C@@]21C [CDB-4124, 21-methoxy-17α-acetoxy-11β-(4 N,N-dimethylaminophenyl)-19-norpregna-4,9-diene-3,20-dione]",rabbit Biol. Act.,[1]; average of anti-McGinty and anti-Clauberg results relative to CDB-2914 (=1.00),3.60
same,antiprogestin activity in the rabbit uterus,[1]; in comparison to RU 486 and CDB-2914,strong antiprogestin activity
same,Breast Brdu-%,[2],1.9 ± 0.7%
same,Uterus epithelium Brdu-%,[2],2.1 ± 2.2%
same,Uterus stroma Brdu-%,[2],1.1 ± 0.25%
same,Follicular phase estrogen Lower?,[3]; Week 18,No
same,"Urinary estrogen, follicular phase, Mean",[3]; Week 18,63.8
same,Follicular phase estrogen Lower?,[3]; Week 36,No
same,"Urinary estrogen, follicular phase, Mean",[3]; Week 36,67.3
same,anti-glucocorticoid receptor activity / glucocorticoid receptor binding,[4],minimal anti-glucocorticoid receptor activity
